Experimental data taken from patent US6613762B2, “Gambogic acid, analogs and derivatives as activators of caspases and inducers of apoptosis” (Cytovia, Inc., priority 1999, dated 2003).

Test system: caspase activity, ZR-75 cells
Assay: Caspase induction and its inhibition by caspase inhibitor (Example 97), ZR-75
Type: cell-based, human
Design: key to Inhibition of caspase activity by Inhibitor: The caspase activity detected was inhibited by the caspase inhibitor (+)
Procedure: T47D, ZR-75, PC3, SHP-77 and A-549 cells were maintained and harvested as described in Example 90. Cells were added to 96-well plates as described in Example 90. The cells were treated with 10 μM gambogic acid, in the presence and in the absence of 10 μM caspase inhibitor cbz-Val-Asp-fmk (Cytovia, Inc.; WO99/18781). The plate was incubated up to 24 h at 37° C in a 5% CO2-95% humidity incubator. Caspase activity was determined by addition of a fluorogenic substrate as described in Example 90.
Gambogic acid induced caspase activity in a ratio of greater than 2.5 (+) above untreated cell levels in all the tested cancer cell lines (Table IV). The caspase activity detected was inhibited by the caspase inhibitor (+), confirming that the fluorescent signal was due to caspase activity.

Q: How did the “Inhibition of caspase activity by Inhibitor” value (ZR-75, 10 μM gambogic acid with 10 μM caspase inhibitor cbz-Val-Asp-fmk) turn out when `CC(C)=CCC[C@]1(C)C=Cc2c(O)c3c(c(CC=C(C)C)c2O1)O[C@]12C(=C[C@@H]4C[C@H]1C(C)(C)O[C@@]2(C/C=C(/C)C(=O)O)C4=O)C3=O` [Example 1, Gambogic Acid] was run?
A: +

Q: What about the Caspase activity (ZR-75, 10 μM gambogic acid, up to 24 h) of the same compound?
A: + (Gambogic acid induced caspase activity in a ratio of greater than 2.5 (+) above untreated cell levels)
